The results in this text go back to patent publication US11649232B2, “Synthetic dimeric cinchona alkaloids against cancer” (Ares Pharmaceuticals, LLC, priority 2021, dated 2023).

What all share (format): cell-based, human
Test [1] concerns ALL-1 (Ph+ adult ALL, B-lineage) cell line. Kind of test: Flow cytometric Annexin V-FITC/PI apoptosis assay.
Source text: (§1) Cell lines and Apoptosis Assays. We used the human leukemia cell lines ALL-1 (Ph+ adult ALL, B-lineage), LOUCY (adult T-lineage ALL; ATCC® CRL-2629™), and RAJI (Burkitt's leukemia/lymphoma; ATCC®, CCL-86) as targets to evaluate the anti-leukemic activity of cinchona alkaloids. In vivo leukemia initiating xenograft clones capable of causing disseminated and fatal leukemia in NOD-SCID mice, derived from primary leukemia cells of 5 patients with relapsed ALL, and the aforementioned 3 leukemia cells lines were treated for 24 hours or 48 hours at 37° C. with cinchona alkaloids at increasing concentrations ranging from 0.5 μM to 50 μM. Controls cells were treated with vehicle (PBS).
(§2) Apoptotic death was monitored using multiparameter flow cytometry, as previously reported (Uckun, F. M. et al., British Journal of Haematology, 2011, 153:741-752; Uckun, F. M. et al., J Clin Invest., 2015, 125:1006-18). Controls included vehicle (PBS) treated cells (CON). Cells were analyzed for apoptosis using the standard quantitative flow cytometric apoptosis assay using the Annexin V-FITC Apoptosis Detection Kit from Sigma. The labeled cells were analyzed on a LSR II flow cytometer. The percent apoptosis was calculated using the formula: 100−100×(Percentage of non-apoptotic cells in test sample/Percentage of non-apoptotic cells in untreated control sample). The percentages for Annexin V FITC^−PI^− viable cells and Annexin V-FITC^+PI^+ advanced apoptotic cells for each sample are indicated in the respective quadrants of the depicted two-color fluorescence dot plots.
as §1, with “We” for “Cell lines and Apoptosis Assays. We”, “ARES-BI-C001453. […]” for “cinchona alkaloids.”, “ARES-BI-C001453” for “cinchona alkaloids”

For test [2], the system named is RAJI (Burkitt's leukemia/lymphoma) cell line. Description: Flow cytometric Annexin V-FITC/PI apoptosis assay.
Source text: as §1, §2
as §1, with “We” for “Cell lines and Apoptosis Assays. We”, “ARES-BI-C001453. […]” for “cinchona alkaloids.”, “ARES-BI-C001453” for “cinchona alkaloids”

In test [3] the test system is LOUCY (adult T-lineage ALL) cell line. Kind of test: Flow cytometric Annexin V-FITC/PI apoptosis assay.
Source text: as §1, §2
as §1, with “We” for “Cell lines and Apoptosis Assays. We”, “ARES-BI-C001453. […]” for “cinchona alkaloids.”, “ARES-BI-C001453” for “cinchona alkaloids”

Another test deals with BT-20 and PC-3 cells. Kind of test: Clonogenic assay, pooled 4 experiments (2 PC-3, 2 BT-20). The following applies: 10 μM, BT-20 and PC-3. The method, then: (§3) Clonogenic Assays. The cytotoxicity of cinchona alkaloids was tested against clonogenic human cancer cells was examined using a methylcellulose colony assay system, as described previously (Uckun, F. M. et al., J. Exp. Med., 1986, 163: 347-68; Uckun, F. M. et al., J. Clin. Invest., 1993, 91: 1044-1051). In brief, cells (10^5 cells/ml in RPMI-10% fetal bovine serum) were treated for 8 hours at 37° C. with cinchona alkaloids at varying concentrations. After treatment, cells were washed twice, and resuspended in clonogenic medium consisting of RPMI 1640 supplemented with 0.9% methylcellulose, 10% fetal bovine serum, and 50 μM 2-mercaptoethanol. Cells were plated at 5×10^4 cells/ml in RPMI 1640 supplemented with 10% fetal bovine serum, and 0.9% methylcellulose in duplicate 35-mm Petri dishes, and cultured for 7 days at 37° C. in a humidified 5% CO2 incubator. Subsequently, cancer cell colonies were enumerated on a grid using an inverted phase-contrast microscope of high optical resolution. Results were expressed as the % Inhibition=[1−(Number of colonies in compound-treated test cultures/Number of colonies in vehicle-treated control cultures)]×100.
as §3, with “cytotoxicity of synthetic dimeric cinchona alkaloids” for “cytotoxicity of cinchona alkaloids”

Test [4] relates to BT-20 triple-negative breast cancer cell line. Description: Clonogenic assay (methylcellulose colony assay). As for the experimental part:
as §3
as §3, with “cytotoxicity of synthetic dimeric cinchona alkaloids” for “cytotoxicity of cinchona alkaloids”

For test [5], the system named is PC-3 castration-resistant prostate cancer cell line. Description: Clonogenic assay (methylcellulose colony assay). The method, then:
as §3
as §3, with “cytotoxicity of synthetic dimeric cinchona alkaloids” for “cytotoxicity of cinchona alkaloids”

Test [6] has as its system ALL-1 BCR-ABL/Ph+ B-lineage ALL cell line. Description: Clonogenic assay (methylcellulose colony assay). The method, then: as §3
as §3, with “cytotoxicity of synthetic dimeric cinchona alkaloids” for “cytotoxicity of cinchona alkaloids”

Setting [7] is: Homo sapiens, read-out: IC50 (apoptosis).

For `CCC1CC23[C@H]([C@H](Oc4nnc(O[C@@H](c5ccnc6ccc(OC)cc56)[C@H]5CC6CCN5CCC6(O)CC)c5ccccc45)c4ccnc5ccc(OC)cc45)N2CC[C@@H]13` (stereo partly shown) [ARES-BI-C002453], the “fold higher IC50 value than ARES-BI-C001453” value in test [1] (ALL-1) is 9.4 fold; in test [2] (RAJI) it was 1.9 fold; in test [3] (LOUCY) it was 35.7 fold. Moreover, the IC50 in test [1] (setting [7]) came to 7.3 µM; in test [2] (Homo sapiens, Raji, read-out: IC50 (apoptosis)), 16.7 µM; in test [3] (setting [7]), 1.5 µM.
As to `CCC1CN2CCC1CC2C(Oc1nnc(OC(c2ccnc3ccc(OC)cc23)C2CC3CCN2CC3CC)c2ccccc12)c1ccnc2ccc(OC)cc12` (stereo not shown) [Compound C61, 1,4-Bis (9-O dihydroquinidinyl)phthalazine/hydroquinidine 1,4-phathalazinediyl diether, reference compound], the “inhibition of clonogenic growth (mean±SE)” value with BT-20 and PC-3 cells amounted to 53.2±11.3%. In addition, the “mean number of residual clones forming colonies” value in the test with BT-20 and PC-3 cells is given as 59.8±6.3 /5×10^4 cells. Moreover, the “% Inhibition” value in test [4] (BT-20 EXP#1, 10 μM) is recorded as 45.9%; in test [4] (BT-20 EXP#2, 10 μM), 31.6%; in test [5] (PC-3 EXP#1, 10 μM) it was 77.9%; in test [5] (PC-3 EXP#2, 10 μM), 57.5%; in test [6] (ALL-1 EXP#1, 10 μM), greater than 99.7%; in test [6] (ALL-1 EXP#2, 10 μM) it was greater than 99.6%. Besides, the “Colonies/5 × 10^4 Cells” value stood at 53.0 Colonies/5 × 10^4 Cells in test [4] (BT-20 EXP#1, 10 μM); 78.0 Colonies/5 × 10^4 Cells in test [4] (BT-20 EXP#2, 10 μM); 41.0 Colonies/5 × 10^4 Cells in test [5] (PC-3 EXP#1, 10 μM); 67.0 Colonies/5 × 10^4 Cells in test [5] (PC-3 EXP#2, 10 μM); 0.0 Colonies/5 × 10^4 Cells in test [6] (ALL-1 EXP#1, 10 μM); 0.0 Colonies/5 × 10^4 Cells in test [6] (ALL-1 EXP#2, 10 μM). The “inhibition of clonogenic growth” value in test [5] (PC3 cells, 10 μM) is 67.7%. Also, in test [6] (10 μM), the “in vitro colony formation by ALL-1 cells” value is given as “abrogated the in vitro colony formation”.
